Measured values as given in patent publication US20240050428A1 (Cullgen (Shanghai), Inc., priority 2020, published 2024).
Like-named read-outs stand apart in the source and are kept apart here.

Experiments:
MV4;11 cells = test: Cell viability assay (CellTiter-Glo) in MV4;11 cells, alone or with gilteritinib; type: cell-based; settings: Homo sapiens, MV4-11, 72 h, MV4;11 cells, three days, CellTiter-Glo, read-out: MV4
MOLM-13 cells = test: Cell viability assay (CellTiter-Glo) in MOLM-13 cells, alone or with gilteritinib; type: cell-based; settings: Homo sapiens, MOLM-13, 72 h, MOLM-13 cells, three days, CellTiter-Glo
[1] = compound alone (without gilteritinib), 11 IC50
[2] = with gilteritinib 10 nM, 11 IC50 gilteritinib
[3] = compound alone (without gilteritinib), read-out: MOLM-13 IC50
[4] = with gilteritinib 20 nM, read-out: MOLM-13 IC50 gilteritinib

| Compound | IC50 (MV4;11 cells; [1]) | IC50 (MV4;11 cells; [2]) | IC50 (MOLM-13 cells; [3]) | IC50 (MOLM-13 cells; [4]) |
| --- | --- | --- | --- | --- |
| COc1ccnc(-c2cn([C@H]3C[C@H](CNc4ccc5c(c4)C(=O)N(C4CCC(=O)NC4=O)C5=O)C3)nc2C2CC2)c1 (stereo partly drawn) [GS-254, 5-(((trans-3-(3-Cyclopropyl-4-(4-methoxypyridin-2-yl)-1H-pyrazol-1-yl)cyclobutyl)methyl)amino)-2-(2,6-dioxopiperidin-3-yl)isoindoline-1,3-dione] | 10 to 100 nM | < 10 nM | 10 to 100 nM | < 10 nM |
| O=C1CCC(N2C(=O)c3ccc(NC[C@H]4C[C@H](n5cc(-c6ccc(Cl)cn6)c(C6CC6)n5)C4)cc3C2=O)C(=O)N1 (stereo partly drawn) [GS-255, 5-(((trans-3-(4-(5-Chloropyridin-2-yl)-3-cyclopropyl-1H-pyrazol-1-yl)cyclobutyl)methyl)amino)-2-(2,6-dioxopiperidin-3-yl)isoindoline-1,3-dione] | 10 to 100 nM | < 10 nM | 100 to 1000 nM | < 10 nM |
| Cc1ccc(-c2cn([C@H]3C[C@H](CNc4ccc5c(c4)C(=O)N(C4CCC(=O)NC4=O)C5=O)C3)nc2C2CC2)nc1 (stereo partly drawn) [GS-256, 5-(((trans-3-(3-Cyclopropyl-4-(5-methylpyridin-2-yl)-1H-pyrazol-1-yl)cyclobutyl)methyl)amino)-2-(2,6-dioxopiperidin-3-yl)isoindoline-1,3-dione] | 10 to 100 nM | < 10 nM | 100 to 1000 nM | < 10 nM |
| O=C1CCC(N2C(=O)c3ccc(NC[C@H]4C[C@H](n5cc(-c6cccc(N7CCC7)n6)c(C6CC6)n5)C4)cc3C2=O)C(=O)N1 (stereo partly drawn) [GS-257, 5-(((trans-3-(4-(6-(Azetidin-1-yl)pyridin-2-yl)-3-cyclopropyl-1H-pyrazol-1-yl)cyclobutyl)methyl)amino)-2-(2,6-dioxopiperidin-3-yl)isoindoline-1,3-dione] | < 10 nM | < 10 nM | 10 to 100 nM | < 10 nM |
| O=C1CCC(N2C(=O)c3ccc(NC[C@H]4C[C@H](n5cc(-c6cccc(NC7CCC7)n6)c(C6CC6)n5)C4)cc3C2=O)C(=O)N1 (stereo partly drawn) [GS-258, 5-(((trans-3-(4-(6-(Cyclobutylamino)pyridin-2-yl)-3-cyclopropyl-1H-pyrazol-1-yl)cyclobutyl)methyl)amino)-2-(2,6-dioxopiperidin-3-yl)isoindoline-1,3-dione] | 100 to 1000 nM | 10 to 100 nM | > 1000 nM | 10 to 100 nM |
| CN(C)c1cccc(-c2cn([C@H]3C[C@H](CNc4ccc5c(c4)C(=O)N(C4CCC(=O)NC4=O)C5=O)C3)nc2C2CC2)n1 (stereo partly drawn) [GS-259, 5-(((trans-3-(3-Cyclopropyl-4-(6-(dimethylamino)pyridin-2-yl)-1H-pyrazol-1-yl)cyclobutyl)methyl)amino)-2-(2,6-dioxopiperidin-3-yl)isoindoline-1,3-dione] | < 10 nM | < 10 nM | 10 to 100 nM | < 10 nM |
| O=C1CCC(N2C(=O)c3ccc(NC[C@H]4C[C@H](n5cc(-c6cccc(NC7COC7)n6)c(C6CC6)n5)C4)cc3C2=O)C(=O)N1 (stereo partly drawn) [GS-260, 5-(((trans-3-(3-Cyclopropyl-4-(6-(oxetan-3-ylamino)pyridin-2-yl)-1H-pyrazol-1-yl)cyclobutyl)methyl)amino)-2-(2,6-dioxopiperidin-3-yl)isoindoline-1,3-dione] | > 1000 nM | > 1000 nM | 100 to 1000 nM | > 1000 nM |
| Cc1cccnc1-c1cn([C@H]2C[C@H](CNc3ccc4c(c3)C(=O)N(C3CCC(=O)NC3=O)C4=O)C2)nc1C1CC1 (stereo partly drawn) [GS-261, 5-(((trans-3-(3-Cyclopropyl-4-(3-methylpyridin-2-yl)-1H-pyrazol-1-yl)cyclobutyl)methyl)amino)-2-(2,6-dioxopiperidin-3-yl)isoindoline-1,3-dione] | < 10 nM | < 10 nM | < 10 nM | < 10 nM |
| COc1cccnc1-c1cn([C@H]2C[C@H](CNc3ccc4c(c3)C(=O)N(C3CCC(=O)NC3=O)C4=O)C2)nc1C1CC1 (stereo partly drawn) [GS-262, 5-(((trans-3-(3-Cyclopropyl-4-(3-methoxypyridin-2-yl)-1H-pyrazol-1-yl)cyclobutyl)methyl)amino)-2-(2,6-dioxopiperidin-3-yl)isoindoline-1,3-dione] | < 10 nM | < 10 nM | < 10 nM | < 10 nM |
| CNc1cccc(-c2cn([C@H]3C[C@H](CNc4ccc5c(c4)C(=O)N(C4CCC(=O)NC4=O)C5=O)C3)nc2C2CC2)n1 (stereo partly drawn) [GS-263, 5-(((trans-3-(3-Cyclopropyl-4-(6-(methylamino)pyridin-2-yl)-1H-pyrazol-1-yl)cyclobutyl)methyl)amino)-2-(2,6-dioxopiperidin-3-yl)isoindoline-1,3-dione] | 100 to 1000 nM | 10 to 100 nM | 100 to 1000 nM | 10 to 100 nM |
| O=C1CCC(N2C(=O)c3ccc(NC[C@H]4C[C@H](n5cc(-c6cc(Cl)ccn6)c(C6CC6)n5)C4)cc3C2=O)C(=O)N1 (stereo partly drawn) [GS-264, 5-(((trans-3-(4-(4-Chloropyridin-2-yl)-3-cyclopropyl-1H-pyrazol-1-yl)cyclobutyl)methyl)amino)-2-(2,6-dioxopiperidin-3-yl)isoindoline-1,3-dione] | 10 to 100 nM | < 10 nM | 10 to 100 nM | < 10 nM |
| O=C1CCC(N2C(=O)c3ccc(NC[C@H]4C[C@H](n5cc(-c6ccncc6)c(C6CC6)n5)C4)cc3C2=O)C(=O)N1 (stereo partly drawn) [GS-265, 5-(((trans-3-(3-Cyclopropyl-4-(pyridin-4-yl)-1H-pyrazol-1-yl)cyclobutyl)methyl)amino)-2-(2,6-dioxopiperidin-3-yl)isoindoline-1,3-dione] | > 1000 nM | 100 to 1000 nM | > 1000 nM | 100 to 1000 nM |
| O=C1CCC(N2C(=O)c3ccc(NC[C@H]4C[C@H](n5cc(-c6cnc7c(N8CCOCC8)cccc7n6)c(C6CC6)n5)C4)cc3C2=O)C(=O)N1 (stereo partly drawn) [GS-266, 5-(((trans-3-(3-Cyclopropyl-4-(5-morpholinoquinoxalin-2-yl)-1H-pyrazol-1-yl)cyclobutyl)methyl)amino)-2-(2,6-dioxopiperidin-3-yl)isoindoline-1,3-dione] | < 10 nM | < 10 nM | < 10 nM | < 10 nM |
| CN1CCN(c2cccc3nc(-c4cn([C@H]5C[C@H](CNc6ccc7c(c6)C(=O)N(C6CCC(=O)NC6=O)C7=O)C5)nc4C4CC4)cnc23)CC1 (stereo partly drawn) [GS-267, 5-(((trans-3-(3-Cyclopropyl-4-(5-(4-methylpiperazin-1-yl)quinoxalin-2-yl)-1H-pyrazol-1-yl)cyclobutyl)methyl)amino)-2-(2,6-dioxopiperidin-3-yl)isoindoline-1,3-dione] | < 10 nM | < 10 nM | < 10 nM | < 10 nM |
| O=C1CCC(N2C(=O)c3ccc(NC[C@H]4C[C@H](n5cc(-c6cccnc6)c(C6CC6)n5)C4)cc3C2=O)C(=O)N1 (stereo partly drawn) [GS-268, 5-(((trans-3-(3-Cyclopropyl-4-(pyridin-3-yl)-1H-pyrazol-1-yl)cyclobutyl)methyl)amino)-2-(2,6-dioxopiperidin-3-yl)isoindoline-1,3-dione] | 100 to 1000 nM | 10 to 100 nM | 100 to 1000 nM | 10 to 100 nM |
| O=C1CCC(N2C(=O)c3ccc(NC[C@H]4C[C@H](n5cc(-c6cccc(NC7CC(O)C7)n6)c(C6CC6)n5)C4)cc3C2=O)C(=O)N1 (stereo partly drawn) [GS-269, 5-(((trans-3-(3-Cyclopropyl-4-(6-((3-hydroxycyclobutyl)amino)pyridin-2-yl)-1H-pyrazol-1-yl)cyclobutyl)methyl)amino)-2-(2,6-dioxopiperidin-3-yl)isoindoline-1,3-dione] | > 1000 nM | 100 to 1000 nM | > 1000 nM | > 1000 nM |
| O=C1CCC(N2C(=O)c3ccc(NC[C@H]4C[C@H](n5cc(-c6cccc(=O)[nH]6)c(C6CC6)n5)C4)cc3C2=O)C(=O)N1 (stereo partly drawn) [GS-270, 5-(((trans-3-(3-Cyclopropyl-4-(6-oxo-1,6-dihydropyridin-2-yl)-1H-pyrazol-1-yl)cyclobutyl)methyl)amino)-2-(2,6-dioxopiperidin-3-yl)isoindoline-1,3-dione] | > 1000 nM | > 1000 nM | > 1000 nM | > 1000 nM |
| O=C(Cn1cc(-c2cnc3ccccc3n2)c(C2CC2)n1)NCc1ccc2c(c1)C(=O)N(C1CCC(=O)NC1=O)C2=O (stereo not drawn) [GS-271, 2-(3-Cyclopropyl-4-(quinoxalin-2-yl)-1H-pyrazol-1-yl)-N-((2-(2,6-dioxopiperidin-3-yl)-1,3-dioxoisoindolin-5-yl)methyl)acetamide] | 10 to 100 nM | 10 to 100 nM | 100 to 1000 nM | 10 to 100 nM |
| O=C1CCC(N2C(=O)c3ccc(NC[C@H]4C[C@H](n5cc(-c6ncccc6Cl)c(C6CC6)n5)C4)cc3C2=O)C(=O)N1 (stereo partly drawn) [GS-272, 5-(((trans-3-(4-(3-Chloropyridin-2-yl)-3-cyclopropyl-1H-pyrazol-1-yl)cyclobutyl)methyl)amino)-2-(2,6-dioxopiperidin-3-yl)isoindoline-1,3-dione] | < 10 nM | < 10 nM | 10 to 100 nM | < 10 nM |
| Nc1cccc(-c2cn([C@H]3C[C@H](CNc4ccc5c(c4)C(=O)N(C4CCC(=O)NC4=O)C5=O)C3)nc2C2CC2)n1 (stereo partly drawn) [GS-273, 5-(((trans-3-(4-(6-aminopyridin-2-yl)-3-cyclopropyl-1H-pyrazol-1-yl)cyclobutyl)methyl)amino)-2-(2,6-dioxopiperidin-3-yl)isoindoline-1,3-dione] | 100 to 1000 nM | 10 to 100 nM | > 1000 nM | 100 to 1000 nM |
| O=C1CCC(N2C(=O)c3ccc(NC[C@H]4C[C@H](n5cc(-c6cccc(NC7CNC7)n6)c(C6CC6)n5)C4)cc3C2=O)C(=O)N1 (stereo partly drawn) [GS-274, 5-(((trans-3-(4-(6-(Azetidin-3-ylamino)pyridin-2-yl)-3-cyclopropyl-1H-pyrazol-1-yl)cyclobutyl)methyl)amino)-2-(2,6-dioxopiperidin-3-yl)isoindoline-1,3-dione] | > 1000 nM | > 1000 nM | > 1000 nM | > 1000 nM |
